Values of other authors in patent US20160052846A1, “METHOD OF DEMULSIFYING AND PURIFYING ORGANIC PRODUCTS FROM AN EMULSION” (CODEXIS, INC., priority 2012, published 2016).
Like-named read-outs stand apart in the source and are kept apart here.

Conditions: for Water sol: in words, no temperature

Row | Compound | Water sol | further results
1 | CCCC(C)O (centres unmarked) [2-pentanol, pentan-2-ol] | – | Water sol (g per 100 g) (at 20° C.): 4 at 20 °C g per 100 g
2 | CCCCCO [Amyl alcohol, pentan-1-ol] | – | Water sol (g per 100 g) (at 22° C.): 2.7 at 22 °C g per 100 g
3 | CC(C)CO [Isobutanol, 2-methylpropan-1-ol] | – | Water sol (g per 100 g) (at 15° C.): 10 at 15 °C g per 100 g
4 | CC(C)CCO [Isopentanol, 3-methylbutan-1-ol] | – | Water sol (g per 100 g) (at 14° C.): 2 at 14 °C g per 100 g
5 | CC(C)O [Isopropanol, propan-2-ol] | soluble | –
6 | CC(C)(C)CO [Neopentyl alcohol, 2,2-dimethylpropan-1-ol] | Slightly soluble | –
7 | CC(C)C(C)O (centres unmarked) [Sec iso amyl alcohol, 3-methylbutan-2-ol] | Slightly soluble | –
8 | propan-1-ol [Propanol] | soluble | –
